# Results taken from the NIST ThermoML archive (doi:10.1021/je0498356).
# Numbers after ± are expanded uncertainties.
# Details: Liquid
Compound,Critical pressure,Critical temperature
"O=C(O)CCCC(=O)O [1,5-pentanedioic acid]",4270 ± 200 kPa,840 ± 13 K
"O=C(O)CCCCC(=O)O [1,6-hexanedioic acid]",3850 ± 150 kPa,841 ± 13 K
"O=C(O)CCCCCC(=O)O [1,7-heptanedioic acid]",3280 ± 130 kPa,842 ± 13 K
"O=C(O)CCCCCCC(=O)O [1,8-octanedioic acid]",2970 ± 120 kPa,843 ± 13 K
"O=C(O)CCCCCCCC(=O)O [1,9-nonanedioic acid]",2720 ± 110 kPa,844 ± 13 K
"O=C(O)CCCCCCCCC(=O)O [1,10-decanedioic acid]",2500 ± 100 kPa,845 ± 13 K
"O=C(O)CCCCCCCCCCCCC(=O)O [1,12-dodecanedicarboxylic acid]",1900 ± 80 kPa,862 ± 13 K
"O=C(O)CCCCCCCCCCC(=O)O [1,12-dodecanedioic acid]",2150 ± 90 kPa,859 ± 13 K
O=C(O)CCC(=O)O [butanedioic acid],6590 ± 300 kPa,851 ± 20 K
